Results from patent EP1994938A1, “New lipoglycodepsipeptide compositions” (priority 2007, dated 2008).

What was measured:
[1] = system: Enterococcus faecalis ATCC 29212; assay: Broth microdilution MIC (CLSI), Ca2+ adjusted Mueller Hinton broth with 4% human serum albumin; format: cell-based
Experimental: (§1) Herein, the minimum inhibitory concentration for the growth inhibition was determined by cultivation of the bacteria in Ca^2+ adjusted Mueller Hinton broth (broth microdilution method) according to the CLSI (previously NCCLS) rules (National Committee for Clinical Laboratory Standards. 2003. Methods for dilution antimicrobial susceptibility tests for bacteria that grow aerobically; approved standard - 6th ed. Document M7-A6. Clinical and Laboratory Standards Institute, Wayne, PA, USA). […] The Gram-positive strains tested for the cultivation methods were: • Staphylococcus aureus ATCC 29213 • Enterococcus faecalis ATCC 29212
(§2) The following inocula were incubated: Table 3

[2] = system: Staphylococcus aureus ATCC 29213; assay: as above; format: cell-based
Experimental: as §1, §2

[3] = system: Streptococcus spp., Staphylococcus spp. and Enterococcus spp.; details: including antibiotic resistant strains (VRE, MRSA); cited from earlier work
[4] = fat emulsion formulation with an oil phase of 8%; cited from earlier work

ramoplanin
Antibiotic activity (MIC) ([1]; Ramoplanin : SBE-β-CD 1:0): 0.5 µg/mL
Antibiotic activity (MIC) ([1]; Ramoplanin : SBE-β-CD 1:2): 0.5 µg/mL
Antibiotic activity (MIC) ([1]; Ramoplanin : SBE-β-CD 1:10): 0.5 µg/mL
Antibiotic activity (MIC) ([2]; Ramoplanin : SBE-β-CD 1:0): 0.5 µg/mL
Antibiotic activity (MIC) ([2]; Ramoplanin : SBE-β-CD 1:2): 0.5 µg/mL
Antibiotic activity (MIC) ([2]; Ramoplanin : SBE-β-CD 1:10): 0.5 µg/mL
general MICs (Minimal Inhibition Concentrations) [3]: below 1 µg/ml
effectiveness in septicaemia mouse models [4]: effective
